Test results as given in the NIST ThermoML archive (doi:10.1021/je9002948).

Tests used:
[1] = molar heat capacity at constant pressure; wn = mass fraction of the nth substance listed; details: 101 kPa, Liquid, Small sample (50 mg) DSC
[2] = molar heat capacity at constant pressure; details: 101.33 kPa, Liquid, Small sample (50 mg) DSC

NCC(=O)[O-].[Na+] [sodium glycinate] + O
molar heat capacity at constant pressure [J/K/mol], [1]
Details	298.15 K	303.15 K	308.15 K	313.15 K	318.15 K	323.15 K
w1 = 0.01	75.2	75.21	75.25	75.32	75.4	75.41
w1 = 0.05	76.7	76.72	76.77	76.85	76.92	77.05
w1 = 0.1	77.39	77.41	77.47	77.53	77.59	77.67
w1 = 0.15	78.81	78.85	78.91	78.99	79.07	79.2
w1 = 0.2	78.23	78.79	79.45	80.12	80.77	81.48
w1 = 0.3	80.84	81.46	82.1	82.75	83.44	84.11

O [water]
[2]
Details	molar heat capacity at constant pressure [J/K/mol]
303.15 K	75.29
308.15 K	75.36
313.15 K	75.38
318.15 K	75.39
323.15 K	75.39
328.15 K	75.39
333.15 K	75.41
338.15 K	75.41
343.15 K	75.43
348.15 K	75.45
353.15 K	75.48
